From patent US20200237871A1, “METHODS FOR MITIGATING LIVER INJURY AND PROMOTING LIVER HYPERTROPHY, REGENERATION AND CELL ENGRAFTMENT IN CONJUNCTION WITH RADIATION AND/OR RADIOMIMETIC TREATMENTS” (Janssen Pharmaceutica NV, priority 2019, published 2020)
Entries after “also recorded” stand apart in the source; their conditions may differ.

How the values were obtained:
[1] = system: mice with normal or cirrhotic (CCl4) livers; experiment: SPECT-CT residual perfusion defect volume after hepatic irradiation (Example 2); assay type: in vivo, mouse
Method: (§1) 8-12-week-old male and female Di-peptyl peptidase IV (DPPIV) −/− knockout mice and 8-12-week-old male and female C57Bl6 mice were used in this study. Animals were weighed in the beginning of the experiment and before tissue collection. All animals were housed in the Institute for Animal Studies at Albert Einstein College of medicine and fed regular rodent chow. All experiments were performed to according to protocols approved by Institutional Animal Care and Use Committee at Albert Einstein College of Medicine. Animals were made cirrhotic using CCl4 administration (intraperitoneal [IP] injections twice a week for at least 11 weeks).
(§2) Image-guided external beam irradiation was performed using a small animal radiation research platform (SARRP, Xstrahl Inc., Suwanee, Ga.). Mice were given gastrografin contrast through gavage to improve visualization of the gastrointestinal (GI) tract. After approximately 2 minutes, mice were positioned on a tubular couch and anesthetized with ˜2% Isofluorane (Isothesia, USP) in 2 L/min pure oxygen. A cone-beam computed tomography (CBCT) scan was acquired and a treatment plan irradiating the median lobe and right lobe was generated using the MuriPlan software. To minimize toxicity, in contrast to Example 1 where two parallel opposed fields were used, irradiation was performed using 2 arcs per liver target with equal dosing weights (likely resulting in more collateral lower dose radiation exposure compared to Example 1). Within the targeted lobes, the position of the isocenter was chosen to minimize irradiation of the GI tract, spine, and heart (the maximum dose to these organs was kept below 10 Gy). Targets were irradiated with 50 Gy X-rays at 220 kVp energy and 13 mA tube current (dose rate of 2.4-2.5 Gy/min) using a 1 mm copper filter for beam hardening. (Brodin et al., The Radiation Safety Journal, 2015, 109 Supp 3, S190).
(§3) TPOm was diluted in sterile PBS to a 10 mg/ml stock. The stock was stored at −20° C. and allowed to come to room temperature prior to administration. TPOm was administered as a single dose (300 μg/kg) via subcutaneous injection 10 minutes after the transplant procedure.
LSEC transplantation is a novel technique that requires a strong growth stimulus for effective liver repopulation (Guha et al., Hepatology, 2002, 36:354-62; Laconi et al., Am. J. Pathol., 1998, 153:319-29). Following isolation of LSECs, 500×10^5 LSECs are transplanted via intrasplenic injection into healthy adult mice anesthetized with Isoflurane (Isothesia, USP) 24 hrs post HIR. […]
SPECT with a radiotracer to assess the progression of RILD in-vivo has been developed and utilized in this work. […] The CT was set on medium resolution and was measured by a dosimeter and read by a third-party company, at an exposure of 5 mRem/hr for each CT scan/animal. […]

DPPIV−/− knockout mice = experiment: LSEC engraftment/repopulation of irradiated liver by DPPIV staining (Examples 2 and 3); assay type: in vivo, mouse
Method: as §1
as §2, with “To minimize toxicity, in contrast to Example 1 where two parallel opposed fields were used, irradiation was performed using 2 arcs per liver target with equal dosing weights (likely resulting in more collateral lower dose radiation exposure compared to Example 1).” left out, “hardening.” for “hardening. (Brodin et al., The Radiation Safety Journal, 2015, 109 Supp 3, S190).”
as §3
DPPIV was selected as a marker for engraftment of exogenous LSECs in the DPPIV (−/−) animals. […] Slide imaging was done using a Perkin Elmer P250 High Capacity Slide Scanner.
LSECs were isolated from the single-cell suspension using CD146 microbeads (Miltenyi Biotec GmbH #130-092-007).
Following isolation of LSECs, 500×10^5 LSECs are transplanted via intrasplenic injection into healthy adult mice anesthetized with Isoflurane (Isothesia, USP) 24 hrs post HIR. Buprenorphine is given post-op as an analgesic.
To test the efficacy of TPOm as an agent that can cause LSEC engraftment, DPPIV−/− knockout mice received 50GY hepatic irradiation (HIR) to the median and right lobes of the liver using external-beam CT-guided x-ray irradiation, and LSECs that express DPPIV (FIG. 2A).
The methods were identical to those described above with the exception that the LSEC transplant was administered 4-5 days post irradiation and the TPOm or Romiplostim were administered approximately 10 minutes post LSEC transplant.

“methoxypolyethyleneglycol20000-propionyl-L-Isoleucyl-L-Glutamyl-Glycyl-L-Prolyl-L-Threonyl-L-Leucyl-L-Arginyl-L-Glutaminyl-L-2-Naphthylalanyl-L-Leucyl-L-Alanyl-L-Alanyl-L-Arginyl-Sarcosyl-Ne-(methoxypolyethyleneglycol20000-propionyl-L-Isoleucyl-L-Glutamyl-Glycyl-L-Prolyl-L-Threonyl-L-Leucyl-L-Arginyl-L-Glutaminyl-L-2-Naphthyl alanyl-L-Leucyl-L-Alanyl-L-Alanyl-L-Arginyl-Sarcosyl-)-Lysinamide [RWJ-800088]” was tested, and the “perfusion defect of irradiated liver tissue (SPECT-CT), in words” value ([1]; LSEC transplant followed by TPOm injection post irradiation) was “perfusion recovery; also recorded: significant mitigation of defect formation”, the “residual defect 2 months post radiation, cirrhotic liver” value ([1]; cirrhotic livers, RWJ-800088 and LSEC transplantation 24-hours post irradiation, listed as TPOm) was “significantly reduced” and the “mean residual defect volume in the irradiated region” value ([1]; normal livers, RWJ-800088 2 or 24 hours prior to irradiation, without LSEC transplant, 2 months post HIR, listed as TPOm) was “significant reduction in defect volume”. The “residual defect volume in the irradiated area” value ([1]; normal livers, RWJ-800088 and LSEC transplantation 24 hours after irradiation, 2 months post HIR, p=0.03, HIR only 71.4%) was 18.2%, the “repopulation of irradiated liver by transplanted DPPIV(+/+) LSECs (DPPIV staining)” value (DPPIV−/− knockout mice; 50GY HIR + LSEC transplant 24 hrs post HIR, growth stimulus given after transplant, listed as TPOm) was “massive LSEC repopulation” and the “animals with some level of hepatic repopulation” value (DPPIV−/− knockout mice; LSEC+TPOm+HIR) was 6/7. The “Engraftment when LSEC transplant is administered 24 hours post irradiation” value (DPPIV−/− knockout mice; targeted liver irradiation (50 Gy)) was “Yes” and the “Engraftment when LSEC transplant is administered 4-5 days post irradiation” value (DPPIV−/− knockout mice; targeted liver irradiation (50 Gy), drug approximately 10 minutes post LSEC transplant) was “Yes”.
